The values below come from patent publication US20100324087A1, “COMBINED USE OF ANGIOGENESIS INHIBITOR AND TAXANE” (EISAI R&D MANAGEMENT CO., LTD., priority 2008, published 2010).

This experiment has as its system Human non-small-cell lung cancer cell line A549. As to the kind of experiment: Combination use of E7080 and docetaxel in subcutaneous transplanted models (in vivo) of A549. As to conditions: alone, A549 subcutaneous transplant, nude mouse. As to the method:
Human non-small-cell lung cancer cell line A549 (purchased from Dainippon Sumitomo Pharma Co., Ltd) was cultured in RPMI1640 (containing 10% FBS) in a 5% carbon dioxide gas incubator at 37° C. to about 80% confluence, and then the cells were treated with trypsin-EDTA and then collected. A 1×10^8 cells/mL suspension was prepared with a phosphate buffer, which was further added with an equivalent amount of matrigel matrix to give a 5×10^7 cells/mL suspension, and each 0.1 mL of the resulting cell suspension was subcutaneously transplanted to a nude mouse at the side of its body. Fourteen days after the transplantation, 4-(3-chloro-4-(cyclopropylaminocarbonyl)aminophenoxy)-7-methoxy-6-quinolinecarboxamide (hereinafter, also referred to as “E7080”) was orally administered for 10 or 30 mg/kg, once a day for four weeks, while 15 mg/kg of docetaxel was intravenously administered alone or in combination every four days for three times. The major and minor axes of tumors were measured with Digimatic caliper (Mitsutoyo Corporation), and tumor volumes and relative tumor volumes were calculated according to the following formulae:
Tumor Volume (TV)=Major axis of tumor (mm)×(Minor axis of tumor)^2 (mm^2)/2
Relative Tumor Volume (RTV)=Tumor volume on measurement day/Tumor volume on the first administration day.

In the case of `CC(=O)O[C@@]12CO[C@@H]1C[C@H](O)[C@@]1(C)C(=O)[C@H](O)C3=C(C)[C@@H](OC(=O)[C@H](O)[C@@H](NC(=O)OC(C)(C)C)c4ccccc4)C[C@@](O)([C@@H](OC(=O)c4ccccc4)[C@H]21)C3(C)C` [Docetaxel, docetaxel, reference compound], for the setting “Docetaxel 15 mg/kg intravenously every four days for three times”, the “Relative tumor volume on Day 29, Average ± standard deviation” value is 1.48 ± 0.29. Regarding `COc1cc2nccc(Oc3ccc(NC(=O)NC4CC4)c(Cl)c3)c2cc1C(N)=O` [E7080, 4-(3-chloro-4-(cyclopropylaminocarbonyl)aminophenoxy)-7-methoxy-6-quinolinecarboxamide], the “Relative tumor volume on Day 29, Average ± standard deviation” value is given as 1.47 ± 0.16 (E7080 10 mg/kg orally once a day for four weeks) and 1.14 ± 0.30 (E7080 30 mg/kg orally once a day for four weeks).
